From US6159733A, “Method for photoinactivating malignant cells” (priority 1996, dated 2000)
Entries after “also recorded” stand apart in the source; their conditions may differ.

Test system: pluripotent stem cells (Ly-5.1 donor BM in Ly-5.2 mice)
Experiment: Bone marrow transplantation and chimerism assay
Assay type: in vivo
Conditions: for mice died two months after transplant: sub-lethally irradiated
Description: Animals. C57B1/6 (Ly-5.2) and B6SJ-cd45 ^b pep 3^b /BOY J (Ly-5.1), were obtained from The Jackson Laboratories (Bar Harbor, Me.) and were maintained in the animal facility of the New York Blood Center. After gamma-irradiation, the animals were housed in microisolator cages and provided with autoclaved food and autoclaved acidified water (pH=3) ad libitum. Preparation of bone marrow cell suspensions--Ly-5.1 mice were used as the source of donor BM. Mice (8-10 weeks old) were killed and the BM was harvested by flushing the femoral shafts with Hank's balanced salt solution (HBSS), pH 7.4. The cell suspensions were centrifuged, washed once and the cells were finally resuspended in HBSS--10% vol/vol fetal bovine serum (FBS, Gemini Bioproducts Inc., Calabasas, Calif.).
Photosensitization. Aliquots of a 1.87 mM Pc 4 (kindly provided by Dr. M. E. Kenney) stock solution in dimethyl sulfoxide were kept at -80° C. in autoclaved brown glass vials. Immediately prior to the photosensitization, Pc4 was thawed and diluted in dimethyl formamide to yield a 10 μM working solution. […] Pc 4 was used at 15 nM throughout the experiments.
BM and cell line samples, were incubated with 15 nM Pc 4 for two hours at 37° C. at cell concentrations of 1.5×10^7 cells/mL. Aliquots of 1.5 mL were transferred to 24-well plates; separate plates were used for each sample.
Photoinactivation. The light source used was a filtered xenon short arc lamp (Versa-Light, Model UV-R6G, Medic Lightech, Ltd., Haifa, Israel). It was used to deliver red light (λ 600-700 nm) to the sensitized cells. After a 20 minute warm up period of the instrument, the distance from the light source to the bottom of the 24-well plate was adjusted to obtain a fluence rate of 26.6 mW/cm^2, as measured with a radiometer (Model IL 1350, International Light, Newburyport, Mass.). Samples were placed under the light source and were stirred during the irradiations. Before and after the irradiations, samples were kept in the dark.
Bone marrow transplantation and chimerism assay. Two month old Ly-5.2 mice were used as recipients in the BM reconstitution assays. […] The irradiated recipient Ly-5.2 mice were divided into six groups. The mice in these groups received either HBSS, untreated control bone marrow, or Pc 4-sensitized BM that was photoirradiated with 0, 6, 12 or 18 J/cm^2, respectively. Each mouse received 250,000 donor BM cells.
Six months after transplantation, peripheral blood was obtained by tail-vein puncture and 40 μL samples were aliquoted into tubes that contained the following antibody cocktails. The first tube contained 4 μL of phycoerythrin (PE) conjugated anti-Ly-5.1 antibody (CD45.1, kind gift from Dr. JoseCarlos Segovia) and 1 μL of fluorescein (FITC) conjugated anti-B220 antibody (B cells; Pharmingen, San Diego, Calif.), the second tube contained 4 μL anti-Ly-5.1^PE and 1 μL of anti-CD3^FITC (T cells; Pharmingen), and the third tube contained 4 μL anti-Ly-5.1^PE and 1 μL of anti-Gr-1^FITC (granulocytes; Pharmingen). Following a 20 minute incubation at room temperature, 2 mL of FACS Lysing Solution (Becton Dickinson (BD), San Jose, Calif.) was added to each sample followed by gentle mixing. After 10 minutes the samples were centrifuged and the pellets were resuspended in 3 mL PBS. After centrifugation, the washed pellets were resuspended in 2% vol/vol formalin--PBS pH 7.4 and the samples were analyzed by flow cytometry within 3 hours after staining.

SMILES: CN(C)CCC[Si](C)(C)O[Si]1(O)n2c3c4ccccc4c2N=C2N=C(N=c4c5ccccc5c(n41)=NC1=NC(=N3)c3ccccc31)c1ccccc12 (stereo not shown) [Pc 4, hydroxysiloxy-dimethylpropyl-N-dimethyl silicon phthalocyanine]
- long term repopulating (LTR) ability / survival of the pluripotent stem cells (1.5×10^7 cells/mL, 18 J/cm^2): not affected by the photoinactivation procedure; also recorded: no adverse affect
- mortality (pilot, lethally irradiated (8.5 Gy), 70,000 untreated or treated donor BM cells): All mice that received 70,000 cells died within one month
- Ly-5.1 chimerism in peripheral blood granulocytes, T cells and B cells (pilot, lethally irradiated (8.5 Gy), 250,000 donor cells (untreated or treated 15 nM, 1.5×10^7 cells/mL, 18 J/cm2), after 4 months, most mice): > 70%
- difference in chimerism levels from untreated BM group (six months, 18 J/cm^2): not significant
- chimerism level, granulocytes (six months, 250,000 BM cells, 18 J/cm^2, untreated BM 0.49±0.01 (p=0.42)): 0.38±0.08
- chimerism level, B cells (six months, 250,000 BM cells, 18 J/cm^2, untreated BM 0.50±0.12 (p=0.53)): 0.39±0.11
- chimerism level, T cells (six months, 250,000 BM cells, 18 J/cm^2, untreated BM 0.72±0.07 (p=0.42)): 0.60±0.12
- mice died two months after transplant (Pc 4, 0 J/cm^2): 1/6
- mice died two months after transplant (Pc 4, 6 J/cm^2): 1/6
- mice died two months after transplant (Pc 4, 18 J/cm^2): 1/6
